According to ChEMBL document CHEMBL1122349, “Mannich bases of 4-phenyl-3-buten-2-one: a new class of antiherpes agent” (1983):
Values joined by “and” are separate entries in the source; they are usually repeats but may differ in a detail not shown here. Equal entries are not always repeated.

Tests used:
Human alphaherpesvirus 1 [1] = test: Reduction of lesion (from control), in hairless mouse model infected with HVH-1(antiherpes activity); type: functional, herpes simplex virus; parameters: concentration or dose not given beside the values
Human alphaherpesvirus 1 [2] = test: Average lesion score in hairless mouse model infected with HVH-1(antiherpes activity); type: functional, herpes simplex virus
Human alphaherpesvirus 1 [3] = test: Antiherpes (Type-1) activity in mouse paralysis model expressed as animals paralyzed treated/percent animals paralyzed control (% T/C); type: functional, herpes simplex virus
Human alphaherpesvirus 1 [4] = test: Reduction of lesion severity, in hairless mouse test against herpes type-1,at 0.75% dose in 1.4% aq.polyvinyl alcohol; type: functional, herpes simplex virus
Mus musculus [5] = organism: Mus musculus; test: Reduction of lesion severity, in hairless mouse test against herpes type-1,at 1.5% dose in 1.4% aq.polyvinyl alcohol; type: functional
Mus musculus [6] = organism: Mus musculus; test: Average lesion score in hairless mouse test against Herpes type-1 at dose of 1.5% in 1.4% aq.polyvinyl alcohol; type: functional
Human alphaherpesvirus 1 [7] = test: Reduction of lesion severity, in hairless mouse test against herpes type-1,at 3% dose in 1.4% aq.polyvinyl alcohol; type: functional, herpes simplex virus
Mus musculus [8] = organism: Mus musculus; test: Average lesion score in hairless mouse test against Herpes type-1 at dose of 0.37% in 1.4% aq.polyvinyl alcohol; type: functional
Human alphaherpesvirus 1 [9] = test: Average lesion score in hairless mouse test against Herpes type-1 at dose of 0.75% in 1.4% aq.polyvinyl alcohol; type: functional, herpes simplex virus
Human alphaherpesvirus 1 [10] = test: Average lesion score in hairless mouse test against Herpes type-1 at dose of 3% in 1.4% aq.polyvinyl alcohol; type: functional, herpes simplex virus
Mus musculus [11] = organism: Mus musculus; test: Reduction of lesion severity, in hairless mouse test against herpes type-1,at 0.37% dose in 1.4% aq.polyvinyl alcohol; type: functional
Mus musculus [12] = organism: Mus musculus; test: Reduction of lesion severity, in hairless mice test against herpes type-2,at 0.37% dose in 1.4% aq.polyvinyl alcohol; type: functional
Mus musculus [13] = organism: Mus musculus; test: Reduction of lesion severity, in hairless mice test against herpes type-2,at 0.75% dose in 1.4% aq.polyvinyl alcohol; type: functional
Mus musculus [14] = organism: Mus musculus; test: Reduction of lesion severity, in hairless mice test against herpes type-2,at 2% dose in 1.4% aq.polyvinyl alcohol; type: functional
Mus musculus [15] = organism: Mus musculus; test: Reduction of lesion severity, in hairless mice test against herpes type-2,at 1.5% dose in 1.4% aq.polyvinyl alcohol; type: functional
Mus musculus [16] = organism: Mus musculus; test: Reduction of lesion severity, in hairless mice test against herpes type-2,at 5% dose in 1.4% aq.polyvinyl alcohol; type: functional
Mus musculus [17] = organism: Mus musculus; test: Reduction of lesion severity, in hairless mouse test against herpes type-1,at 5% dose in 1.4% aq.polyvinyl alcohol; type: functional
Mus musculus [18] = organism: Mus musculus; test: Average lesion score in hairless mouse test against Herpes type-1 at dose of 5% in 1.4% aq.polyvinyl alcohol; type: functional

Row | Compound | Reduction (Human alphaherpesvirus 1 [1]) | Average lesion score (Human alphaherpesvirus 1 [2]) | T/C (Human alphaherpesvirus 1 [3]) | further results
1 | CN(C)CCC(=O)/C=C/c1ccccc1.Cl | 30% | 1.8 | – | –
2 | Cl.OC(/C=C/c1ccccc1)CCN1CCOCC1 (stereo not drawn) | – | – | 88% | –
3 | O=C(/C=C/c1ccccc1)CCSc1ccccc1 | 10% | 2.5 | – | –
4 | COc1cccc(/C=C/C(=O)CC[N+](C)(C)C)c1.[I-] | 86% | 0.33 | – | –
5 | C[S+]([O-])CCC(=O)/C=C/c1ccccc1 (stereo not drawn) | 48% | 1.3 | – | –
6 | CC(C)(C[N+](C)(C)C)C(=O)/C=C/c1ccccc1.[I-] | 13% | 2.33 | – | –
7 | O=C(CCc1ccc(Cl)c(Cl)c1)CCN1CCOCC1 | – | – | 50% | –
8 | O=C(/C=C/c1ccccc1)CCNc1ccccc1 | 9% | 2.67 | – | –
9 | CC(C[N+](C)(C)C)C(=O)/C=C/c1ccccc1.[I-] (stereo not drawn) | 89% | 0.33 | – | –
10 | C[S+](C)CCC(=O)/C=C/c1ccccc1.[I-] | 82% | 0.5 | – | Reduction (Human alphaherpesvirus 1 [4]): 76%; Reduction (Mus musculus [5]): 82%; Average lesion score (Mus musculus [6]): 0.5; Reduction (Human alphaherpesvirus 1 [7]): 88%; Average lesion score (Mus musculus [8]): 0.67; Average lesion score (Human alphaherpesvirus 1 [9]): 0.67; Average lesion score (Human alphaherpesvirus 1 [10]): 0.33; Reduction (Mus musculus [11]): 76%
11 | C[N+](C)(C)CCC(=O)/C=C/c1ccccc1.[I-] | 64% | 1 | – | Reduction (Human alphaherpesvirus 1 [4]): 76%; Reduction (Mus musculus [5]): 82%; Average lesion score (Mus musculus [6]): 0.5; Reduction (Human alphaherpesvirus 1 [7]): 88%; Average lesion score (Mus musculus [8]): 0.67; Average lesion score (Human alphaherpesvirus 1 [9]): 0.67; Average lesion score (Human alphaherpesvirus 1 [10]): 0.33; Reduction (Mus musculus [11]): 76%
12 | CCCSCCC(=O)/C=C/c1ccccc1 | 0% | 2.8 | – | –
13 | CCC[S+](C)CCC(=O)/C=C/c1ccccc1.[I-] (stereo not drawn) | 74% | 0.67 | – | –
14 | CCOP(=O)(CCC(=O)/C=C/c1ccccc1)OCC | 10% | 2.3 | – | –
15 | CSc1ccc(/C=C/C(=O)CCN2CCOCC2)cc1.Cl | – | – | 12% | –
16 | Cl.O=C(/C=C/c1cccc(C(F)(F)F)c1)CCN1CCOCC1 | – | – | 11% | –
17 | Cl.N#Cc1ccc(/C=C/C(=O)CCN2CCOCC2)cc1 | – | – | 24% | –
18 | Cl.O=C(/C=C/c1c(Cl)cccc1Cl)CCN1CCOCC1 | – | – | 14% | –
19 | Cl.O=C(/C=C/c1ccc(Cl)c(Cl)c1)CCN1CCOCC1 | – | – | 0% | Reduction (Human alphaherpesvirus 1 [4]): 80%; Reduction (Mus musculus [5]): 80%; Average lesion score (Mus musculus [6]): 0.5; Reduction (Human alphaherpesvirus 1 [7]): 80%; Average lesion score (Mus musculus [8]): 0.83; Average lesion score (Human alphaherpesvirus 1 [9]): 0.5; Average lesion score (Human alphaherpesvirus 1 [10]): 0.5; Reduction (Mus musculus [11]): 67%
20 | CS(=O)(=O)c1ccc(/C=C/C(=O)CCN2CCOCC2)cc1.Cl | – | – | 12% | –
21 | Cl.O=C(/C=C/c1ccccc1)CCN1CCOCC1 | 94% | 0.17 | 11% | Reduction (Mus musculus [12]): 70%; Reduction (Human alphaherpesvirus 1 [4]): 67%; Reduction (Mus musculus [5]): 80%; Reduction (Mus musculus [13]): 78%; Reduction (Mus musculus [14]): 85%; Average lesion score (Mus musculus [6]): 0.55; Reduction (Human alphaherpesvirus 1 [7]): 87%; Average lesion score (Mus musculus [8]): 0.83; Average lesion score (Human alphaherpesvirus 1 [9]): 0.83; Average lesion score (Human alphaherpesvirus 1 [10]): 0.33; Reduction (Mus musculus [11]): 67%; Reduction (Mus musculus [15]): 78%
22 | Cl.O=C(/C=C/c1ccc2c(c1)OCO2)CCN1CCOCC1 | – | – | 14% | –
23 | COc1cccc(/C=C/C(=O)CCN2CCOCC2)c1.Cl | – | – | 0% | –
24 | Cl.O=C(/C=C/c1ccc(O)cc1)CCN1CCOCC1 | – | – | 63% | –
25 | COc1ccc(/C=C/C(=O)CCN2CCOCC2)cc1.Cl | – | – | 25% | –
26 | Cl.O=C(/C=C/c1cccc([N+](=O)[O-])c1)CCN1CCOCC1 | – | – | 47% | –
27 | Cl.O=C(/C=C/c1ccc(Cl)cc1)CCN1CCOCC1 | – | – | 12% | –
28 | Cc1ccc(/C=C/C(=O)CCN2CCOCC2)cc1.Cl | – | – | 38% | –
29 | O=C(O)CP(=O)([O-])[O-].[Na+].[Na+] [DISODIUM CARBOXYMETHYLPHOSPHONATE] | 74% | 0.33 | 24% and 61% | Reduction (Mus musculus [16]): 78%; Reduction (Human alphaherpesvirus 1 [4]): 9%; Reduction (Mus musculus [17]): 87%; Reduction (Human alphaherpesvirus 1 [7]): 69%; Average lesion score (Human alphaherpesvirus 1 [9]): 2.5; Average lesion score (Human alphaherpesvirus 1 [10]): 0.83; Average lesion score (Mus musculus [18]): 0.33
